Values of other authors as cited in US20240325349A1, “LIQUID PHARMACEUTICAL FORMULATIONS OF TOPIRAMATE” (TaP Pharmaceuticals AG, priority 2023, published 2024).
Like-named read-outs stand apart in the source and are kept apart here.

Topiramate Solubility (in Aconon C-30 (oil)): 50.7 ± 3.5 mg/mL
Topiramate Solubility (in Capmul MCM C-8 (oil)): 62.5 ± 3.9 mg/mL
Topiramate Solubility (in Capmul MCM EP (oil)): 61.4 ± 3.8 mg/mL
Topiramate Solubility (in Captex 355 (oil)): 14.5 ± 0.8 mg/mL
Topiramate Solubility (in Carbitol (cosurfactant)): 355.6 ± 29.2 mg/mL
Topiramate Solubility (in Cremophor EL (surfactant)): 78 ± 2.1 mg/mL
Topiramate Solubility (in Cremophor RH-40 (surfactant)): 46 ± 2.7 mg/mL
Topiramate Solubility (in Ethyl Oleate (oil)): 6.7 ± 0.3 mg/mL
Topiramate Solubility (in IPM (oil)): 6.7 ± 0.4 mg/mL
Topiramate Solubility (in Oleic Acid (oil)): 0.1 ± 0.1 mg/mL
Topiramate Solubility (in PEG 200 (cosurfactant)): 169.6 ± 2.3 mg/mL
Topiramate Solubility (in PEG 400 (cosurfactant)): 148.9 ± 3.5 mg/mL
Topiramate Solubility (in Sesfol 218 (oil)): 53.6 ± 2.6 mg/mL
Topiramate Solubility (in Tween 20 (surfactant)): 142.8 ± 6.4 mg/mL
Topiramate Solubility (in Tween 80 (surfactant)): 84.2 ± 3^ mg/mL
SMILES: CC1(C)O[C@@H]2[C@@H](CO[C@@]3(COS(N)(=O)=O)OC(C)(C)O[C@@H]23)O1 [Topiramate, 2,3:4,5-Di-O-isopropylidene-β-D-fructopyranose sulfamate]
